Source: patent US8148367B2 (Takeda Pharmaceutical Company Limited, priority 2008, dated 2012)

These compounds were tested against T1, Recombinant human renin (Homo sapiens, UniProt P00797) (assay: In vitro enzymatic activity assay of renin inhibitors (fluorescence, QXL520/HiLyteFluo488 peptide substrate)). Details: not given.
T1 construct: isolate the active form (residues 67-406); made in house; host or cells: FreeStyle 293-F cells, transient expression of pcDNA3.1(+)/hREN
T1 sequence (P00797 67-406): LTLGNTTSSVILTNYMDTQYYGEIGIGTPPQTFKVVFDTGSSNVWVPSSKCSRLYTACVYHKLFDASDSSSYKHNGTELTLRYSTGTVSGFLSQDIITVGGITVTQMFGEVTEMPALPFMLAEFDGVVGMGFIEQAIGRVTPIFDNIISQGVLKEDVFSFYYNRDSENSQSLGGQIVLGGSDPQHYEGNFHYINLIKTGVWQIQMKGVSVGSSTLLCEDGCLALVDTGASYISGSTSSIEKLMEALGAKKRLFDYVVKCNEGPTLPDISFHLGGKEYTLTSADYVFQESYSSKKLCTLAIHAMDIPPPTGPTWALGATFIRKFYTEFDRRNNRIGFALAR
Assay type: biochemical
In the case of `Cc1ccccc1-n1c(-c2ccccc2)c(C(=O)N2CCNCC2)n(CCNC(=O)Oc2ccccc2)c1=O` [Example 248, Phenyl 2-(2-oxo-4-phenyl-5-(piperazine-1-carbonyl)-3-o-tolyl-2,3-dihydro-1H-imidazol-1-yl)ethylcarbamate], the IC50 is reported as > 1000 nM. For `Cc1ccccc1-n1c(-c2ccccc2)c(C(=O)N2CCNCC2)n(CCCNC(=O)Oc2ccccc2)c1=O` [Example 252, Phenyl 3-(2-oxo-4-phenyl-5-(piperazine-1-carbonyl)-3-o-tolyl-2,3-dihydro-1H-imidazol-1-yl)propylcarbamate], the IC50 was > 1000 nM.

Same assay, conditions: recombinant human renin 3 nM, 1 μM substrate, pre-incubated 10 minutes at 37° C., incubation one hour, pH 7.4, 5% DMSO; read-out: IC50 of Exemplified Compounds Against Renin
With `COc1ccccc1C(=O)NCCCn1c(C(=O)N2CCNCC2)c(-c2ccccc2)n(-c2ccccc2C)c1=O` [Example 244, 2-Methoxy-N-(3-(2-oxo-4-phenyl-5-(piperazine-1-carbonyl)-3-o-tolyl-2,3-dihydro-1H-imidazol-1-yl)propyl)benzamide] the IC50 was > 1000 nM. `COc1ccc(C(=O)NCCCn2c(C(=O)N3CCNCC3)c(-c3ccccc3)n(-c3ccccc3C)c2=O)cc1` [Example 245, 4-Methoxy-N-(3-(2-oxo-4-phenyl-5-(piperazine-1-carbonyl)-3-o-tolyl-2,3-dihydro-1H-imidazol-1-yl)propyl)benzamide] was tested, and the IC50 was > 1000 nM. For `Cc1ccccc1-n1c(-c2ccccc2)c(C(=O)N2CCNCC2)n(CCCNC(=O)C(C)C)c1=O` [Example 246, N-(3-(2-oxo-4-phenyl-5-(piperazine-1-carbonyl)-3-o-tolyl-2,3-dihydro-1H-imidazol-1-yl)propyl)isobutyramide], the IC50 was > 1000 nM. `Cc1ccccc1-n1c(-c2ccccc2)c(C(=O)N2CCNCC2)n(CCCNC(=O)C2CCCCC2)c1=O` [Example 247, N-(3-(2-oxo-4-phenyl-5-(piperazine-1-carbonyl)-3-o-tolyl-2,3-dihydro-1H-imidazol-1-yl)propyl)cyclohexanecarboxamide] was tested, and the IC50 was > 1000 nM. In the case of `COC(=O)NCCn1c(C(=O)N2CCNCC2)c(-c2ccccc2)n(-c2ccccc2C)c1=O` [Example 249, Methyl 2-(2-oxo-4-phenyl-5-(piperazine-1-carbonyl)-3-o-tolyl-2,3-dihydro-1H-imidazol-1-yl)ethylcarbamate], the IC50 is reported as > 1000 nM. `CCOC(=O)NCCn1c(C(=O)N2CCNCC2)c(-c2ccccc2)n(-c2ccccc2C)c1=O` [Example 250, Ethyl 2-(2-oxo-4-phenyl-5-(piperazine-1-carbonyl)-3-o-tolyl-2,3-dihydro-1H-imidazol-1-yl)ethylcarbamate] was tested, and the IC50 was > 1000 nM. With `Cc1ccccc1-n1c(-c2ccccc2)c(C(=O)N2CCNCC2)n(CCNC(=O)OCc2ccccc2)c1=O` [Example 251, Benzyl 2-(2-oxo-4-phenyl-5-(piperazine-1-carbonyl)-3-o-tolyl-2,3-dihydro-1H-imidazol-1-yl)ethylcarbamate] the IC50 was > 1000 nM. In the case of `COC(=O)NCCCn1c(C(=O)N2CCNCC2)c(-c2ccccc2)n(-c2ccccc2C)c1=O` [Example 253, Methyl 3-(2-oxo-4-phenyl-5-(piperazine-1-carbonyl)-3-o-tolyl-2,3-dihydro-1H-imidazol-1-yl)propylcarbamate], the IC50 is reported as > 1000 nM. `CCOC(=O)NCCCn1c(C(=O)N2CCNCC2)c(-c2ccccc2)n(-c2ccccc2C)c1=O` [Example 254, Ethyl 3-(2-oxo-4-phenyl-5-(piperazine-1-carbonyl)-3-o-tolyl-2,3-dihydro-1H-imidazol-1-yl)propylcarbamate] was tested, and the IC50 was > 1000 nM. `Cc1ccccc1-n1c(-c2ccccc2)c(C(=O)N2CCNCC2)n(CCCNC(=O)OCc2ccccc2)c1=O` [Example 255, Benzyl 3-(2-oxo-4-phenyl-5-(piperazine-1-carbonyl)-3-o-tolyl-2,3-dihydro-1H-imidazol-1-yl)propylcarbamate] was tested, and the IC50 was > 1000 nM.
